Measured values: US11439624B2, “Promoting sleep using AT1 receptor blockers” (UNIVERSITY OF PITTSBURGH—OF THE COMMONWEALTH SYSTEM OF …, priority 2012, dated 2022)

Key:
[1] = tested on: humans treated for hypertension; details: cited from earlier work
[2] = tested on: rats in the stress-induced insomnia model; experiment: stress-induced insomnia model in rats (cage exchange; EEG and EMG recording); format: in vivo, rat; details: for average of REM sleep / average of nREM sleep / average of wakefulness along the entire experiment: aprox. 6 hours after cage exchange and drug injection; for average of REM sleep: vehicle 2%; for average of nREM sleep: vehicle 45%; for average of wakefulness along the entire experiment: vehicle 52%; for REM sleep (range depending on the hour): vehicle 0-4%; for sleep latency: stressed (cage exchanged) rats, i.p. just prior to transfer to soiled cage, candesartan 1 or 5 mg/kg, azilsartan 0.5 mg/kg, vehicle 68±10 minutes; for abnormal wave components in the EEG (power spectrum analysis): treated rats in the insomnia model
Method: Rats in the stress-induced insomnia model (25) were treated with candesartan intraperitoneally (i.p.; 1 mg/kg or 5 mg/kg). In the model, insomnia is induced by transferring male rats at the peak of their normal sleep cycle into a soiled cage previously occupied during one week by another male rat. This simple procedure induces a psychological or social stress response in the rats, which are very territorial animals. The sequence of sleep disturbances in cage exchanged rats is similar to that observed in humans with primary insomnia. In rats, there is an initial delay in sleep onset and increased wakefulness that resemble the difficulties falling asleep at the beginning of the night, or initial insomnia, observed in humans after a stressful day. Eventually, insomniacs fall asleep because of the sleep pressure, as rats do. But later, as the night progresses, they usually experience insomnia characterized by decreased nREM sleep, frequent awakenings, and poor quality sleep, similar to what we observed in the stressed rats. Candesartan was injected i.p. just prior to transferring the rats (n=7 for the 1 mg/kg treatment and n=4 for the 5 mg/kg treatment) to the soiled cage. EEG and EMG activity were recorded continuously to determine the behavioral state (wake, nREM or REM sleep) along several hours. Control rats (n=6) were injected with vehicle and also placed in a soiled cage and recorded. […] REM sleep is increased to 6-12% (depending on the hour) compared with vehicle treated rats (0-4%). In an additional study, Azilsartan was tested using the same stress-induced insomnia model in rats as was used in Example 1. Azilsartan, which mainly acts as an inverse agonist of AT1 receptors, has been reported to have a potent effect in the treatment of hypertension at a single daily dose compared to twice-a-day doses commonly used for other AT1 receptor blockers. For this reason, we used a lower dose of azilsartan (0.5 mg/kg) than the dose used for candesartan. Azilsartan was injected i.p. just prior to transferring the rats (n=4) to the soiled cage. EEG and EMG activity were recorded continuously to determine the behavioral state (wake, nREM or REM sleep) along several hours, as explained above.

[3] = candesartan 1 or 5 mg/kg i.p., azilsartan 0.5 mg/kg i.p.

| Structure (SMILES) | duration of effect compared with other AT1 receptor blockers [1] | more sleep in the last two hours of the experiment compared to candesartan-treated rats ([2]; 4 hours after injection of the drug, azilsartan 0.5 mg/kg i.p.) | average of REM sleep [2] | average of nREM sleep [2] | average of wakefulness along the entire experiment [2] | percentage of nREM sleep (range depending on the hour) ([2]; azilsartan 0.5 mg/kg i.p.) | REM sleep (range depending on the hour) [2, 3] | sleep latency [2] | abnormal wave components in the EEG (power spectrum analysis) [2] | effect on sleep disturbances induced by stress ([2]; validated rat model of stress-induced insomnia) | nREM sleep increase compared with vehicle treated rats (depending on the hour) ([2]; candesartan 1 or 5 mg/kg i.p.) |
| --- | --- | --- | --- | --- | --- | --- | --- | --- | --- | --- | --- |
| CCOc1nc2cccc(C(=O)O)c2n1Cc1ccc(-c2ccccc2-c2noc(=O)[nH]2)cc1 [azilsartan] | longer-lasting effect than other AT1 receptor blockers | 20% | 10% | 68% | 22% | 50-82% | 3-15% | 60 ± 3 min | does not seem to induce abnormal wave components in the EEG | ameliorate sleep disturbances induced by stress | – |
| CCOc1nc2cccc(C(=O)O)c2n1Cc1ccc(-c2ccccc2-c2nnn[nH]2)cc1 [candesartan] | – | – | 7.5% | 57% | 35% | – | 6-12% | 38 ± 3 min | does not induce abnormal wave components in the EEG | – | 20-40% |
